Test [1] concerns Pseudomonas aeruginosa ATCC 29260. The test is described as follows: Antibacterial MIC, two-fold serial dilution. In kind it is cell-based. The following applies: ATCC29260, Gram −ve bacteria, LB broth, 37°C, 24 h, visual (no turbidity), read-out: MIC P. aeruginosa. How it is done: (§1) The antimicrobial activity of the synthesized thiadiazolopyrimidine compounds was studied toward diverse pathogenic strains, such as gram-positive bacteria (Staphylococcus aureus ATCC 29213 and Bacillus cereus UW85), gram-negative bacteria (Escherichia coli ATCC 12435 and Pseudomonas aeruginosa ATCC 29260), and fungi (Candida albicans and Aspergillus fumigatus 293). The assessment was performed through the two-fold dilution technique using Ampicillin (antibacterial) and Fluconazole (antifungal) as the reference drugs[28],[29]. The minimal inhibitory concentration (MICs, µg/mL) of the synthesized derivatives for prohibiting microbial growth was determined through the visual detection (no turbidity) technique.
(§2) The synthesized thiadiazolopyrimidine-based compounds were evaluated and adopted for antibacterial and antifungal effectiveness using the approved procedure[38],[39].
(§3) Minimal inhibitory concentrations (MICs) were determined by serial dilution technique using 96-multiwell microtiter plates. The investigated compounds were dissolved in DMSO 100% to prepare stock solutions of 5000 µg/mL. Two-fold serial dilutions of the dissolved compounds were performed in LB broth providing eight different concentrations (1250, 625, 312.5, 156, 78, 39, 19.5 µg/mL). Overnight cultures of microorganisms were diluted to 1 ×10^6 CFU/mL in LB broth, and 20 mL of the diluted cultures were added to the test solutions (50 mL) in the wells (one well per concentration per bacterial strain). The plates were incubated at 37°C for 24 h. MIC was detected visually as the least concentration inhibiting bacterial growth (no turbidity) and the activity of the tested compounds was estimated in comparison to ampicillin.

The next test deals with Bacillus cereus UW85. Briefly: Antibacterial MIC, two-fold serial dilution. The following applies: Gram +ve bacteria, LB broth, 37°C, 24 h, visual (no turbidity), read-out: MIC B. cereus. In kind it is cell-based. How it is done:
as §1, §2, §3

For test [2], the system named is Staphylococcus aureus ATCC 29213. Briefly: Antibacterial MIC, two-fold serial dilution. The class given is cell-based. The following applies: ATCC29213, Gram +ve bacteria, LB broth, 37°C, 24 h, visual (no turbidity), read-out: MIC S. aureus. How it is done: as §1, §2, §3
Test [3] deals with Escherichia coli ATCC 12435. The test is described as follows: Antibacterial MIC, two-fold serial dilution. The class given is cell-based. The following applies: ATCC12435, Gram −ve bacteria, LB broth, 37°C, 24 h, visual (no turbidity). How it is done: as §1, §2, §3
A further test relates to DNA. Briefly: Bleomycin-dependent DNA damage. The class given is biochemical. The following applies: test sample 0.1 mg/mL, λ = 532 nm; mean of three replicates ± SD; ascorbic acid 0.24 mM. The text has this:
Bleomycin-dependent DNA damage. The prepared polycyclic thiadiazolopyrimidine-based compounds were examined through the bleomycin-dependant DNA damage, and the results were compared to that of ascorbic acid as a positive control. The obtained data reflected the ability of these derivatives to protect the DNA from damage. The capability of compounds 16a–b and 17a–b to manifest the best protective effect against DNA damage was indicated by the corresponding absorbance values ranging from 0.031 to 0.053 (Table 4)[35],[36].
Bleomycin-dependent DNA damage experiment: To a mixture of 0.5 mg / mL of DNA, 5 mM magnesium chloride, 50 mM ferric chloride and 0.05 mg / mL bleomycin sulfate was prepared. The test sample was prepared at a concentration of 0.1 mg / mL and added to the mixture. After incubation of the mixture for one hour at 37 °C, 0.05 mL of EDTA (0.1 M) was added to terminate the reaction. In the next step, 0.5 mL of TBA (1% w / v) and 0.5 mL of HCl (25% v / v) were added for colour development and the mixture was heated for 10 minutes at 80 °C. The mixture was centrifuged and the absorbance expressed, the amount of damage to the DNA was measured at λ = 532 nm. L-Ascorbic acid (0.24 mM) was used as a positive control.

In brackets after ≈: the same amount, converted by molar mass.

As usually defined, the MIC is the least concentration at which growth counts as inhibited. As for `Nc1c2c(=O)nc3scnn3c2nc2nncn12` [Compound 12, 6-Amino-5H-[1,2,4]triazolo[4′,3′:1,2]pyrimido[5,4-e][1,3,4]thiadiazolo[3,2-a]pyrimidin-5-one], the MIC in test [1] is over 1250 µg/mL; with Bacillus cereus UW85 it was over 1250 µg/mL; in test [2], 625 µg/mL (≈ 2.4 mM); in test [3] it was over 1250 µg/mL. Also, in the test with DNA, the “Absorbance (bleomycin-dependent DNA damage)” value is 0.107 ± 0.08.

(Values after publication PMC8333053, “Synthesis and biological screening of new thiadiazolopyrimidine-based polycyclic compounds” (Scientific Reports, 2021).)
